Data reported in ChEMBL document CHEMBL5728415, “Heteroaryl-substituted sulfonamide compounds and their use as therapeutic agents” (2021).

How the values were obtained:
[1] = Sodium Influx Assay (In Vitro Assay): This sodium influx assay employs the use of the cell permeable, sodium sensitive dye ANG2 to quantify sodium ion influx through sodium channels which are maintained in an open state by use of sodium channel modulators. This high throughput sodium influx assay allows for rapid profiling and characterization of sodium channel blockers.In general, Trex HEK293 …
[2] = target: Sodium channel protein type 8 subunit alpha (Homo sapiens, UniProt Q9UQD0); test: as above
Sodium channel protein type 8 subunit alpha, sequence (Q9UQD0 whole entry): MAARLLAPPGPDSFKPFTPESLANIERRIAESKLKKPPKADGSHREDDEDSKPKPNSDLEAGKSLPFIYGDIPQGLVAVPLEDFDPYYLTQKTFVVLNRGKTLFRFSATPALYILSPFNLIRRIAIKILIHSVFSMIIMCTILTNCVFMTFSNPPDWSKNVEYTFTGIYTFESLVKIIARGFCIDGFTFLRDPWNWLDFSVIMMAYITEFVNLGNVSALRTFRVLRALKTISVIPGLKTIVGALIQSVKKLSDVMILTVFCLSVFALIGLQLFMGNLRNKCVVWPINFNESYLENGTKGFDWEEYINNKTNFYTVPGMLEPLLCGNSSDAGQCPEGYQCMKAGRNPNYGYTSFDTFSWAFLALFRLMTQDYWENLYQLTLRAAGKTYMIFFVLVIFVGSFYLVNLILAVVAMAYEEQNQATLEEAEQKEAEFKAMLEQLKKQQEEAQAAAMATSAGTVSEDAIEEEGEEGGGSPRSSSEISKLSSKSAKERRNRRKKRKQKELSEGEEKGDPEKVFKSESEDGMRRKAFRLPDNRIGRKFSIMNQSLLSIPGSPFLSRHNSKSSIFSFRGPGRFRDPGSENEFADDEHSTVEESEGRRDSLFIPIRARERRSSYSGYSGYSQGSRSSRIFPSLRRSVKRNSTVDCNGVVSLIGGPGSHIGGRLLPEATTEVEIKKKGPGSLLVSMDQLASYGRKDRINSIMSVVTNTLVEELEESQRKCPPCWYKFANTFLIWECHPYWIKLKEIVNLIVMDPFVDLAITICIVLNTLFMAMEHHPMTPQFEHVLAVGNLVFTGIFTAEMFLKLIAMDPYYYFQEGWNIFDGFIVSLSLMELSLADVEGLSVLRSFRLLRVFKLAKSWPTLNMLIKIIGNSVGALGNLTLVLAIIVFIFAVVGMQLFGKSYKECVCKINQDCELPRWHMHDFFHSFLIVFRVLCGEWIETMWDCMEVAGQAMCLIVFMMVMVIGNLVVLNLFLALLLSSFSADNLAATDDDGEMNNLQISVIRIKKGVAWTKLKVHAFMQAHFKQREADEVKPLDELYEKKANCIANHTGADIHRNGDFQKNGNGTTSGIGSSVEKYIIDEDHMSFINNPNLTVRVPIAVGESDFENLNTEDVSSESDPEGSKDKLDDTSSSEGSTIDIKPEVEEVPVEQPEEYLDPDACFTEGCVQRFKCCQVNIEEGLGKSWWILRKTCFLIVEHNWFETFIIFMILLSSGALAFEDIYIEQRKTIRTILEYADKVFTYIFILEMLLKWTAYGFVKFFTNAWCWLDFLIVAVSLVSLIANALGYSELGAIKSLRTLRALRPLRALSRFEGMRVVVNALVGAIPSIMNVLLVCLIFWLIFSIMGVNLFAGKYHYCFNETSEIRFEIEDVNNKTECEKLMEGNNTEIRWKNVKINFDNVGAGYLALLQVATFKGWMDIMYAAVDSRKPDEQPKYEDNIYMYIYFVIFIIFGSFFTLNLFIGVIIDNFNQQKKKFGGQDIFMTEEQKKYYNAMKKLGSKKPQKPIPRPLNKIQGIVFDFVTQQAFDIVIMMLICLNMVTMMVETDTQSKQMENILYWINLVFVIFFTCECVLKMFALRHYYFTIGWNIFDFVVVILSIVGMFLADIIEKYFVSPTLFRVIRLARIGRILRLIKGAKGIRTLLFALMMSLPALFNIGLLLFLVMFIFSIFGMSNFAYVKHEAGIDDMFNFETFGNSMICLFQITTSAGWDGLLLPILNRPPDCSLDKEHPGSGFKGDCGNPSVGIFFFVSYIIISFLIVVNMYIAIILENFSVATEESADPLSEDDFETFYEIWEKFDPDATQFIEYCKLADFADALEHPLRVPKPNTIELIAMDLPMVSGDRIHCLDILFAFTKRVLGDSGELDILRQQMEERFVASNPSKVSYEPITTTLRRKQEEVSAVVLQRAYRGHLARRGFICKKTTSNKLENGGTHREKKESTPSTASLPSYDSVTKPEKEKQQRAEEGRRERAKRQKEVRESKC

Structure (SMILES) | IC50 [1] [µM] | IC50 [2] [µM]
Cc1nc(NCc2c(F)cccc2CN2CCCC2)ccc1S(=O)(=O)Nc1cscn1 | 6.18 | 
Cc1cc(S(=O)(=O)Nc2cccc(F)n2)ncc1NCc1c(F)cccc1CN1CCCC1 | 28.8 | 
Cc1nc(S(=O)(=O)Nc2cscn2)c(F)cc1NCc1c(F)cccc1CN1C2CCC1CC2 |  | 0.037
